One assay concerns Myd88. In words: Mice study #2: Myd88 immunostaining of gingival tissue. The assay is classed as in vivo, C57BL/6 mice. Particulars: preventive and active treatment groups consistent. As to the method:
Mice study #2: Validation study for preventive and active treatment for DIGO. […] One set of these mice were used as a control disease group (FIG. 23A) while the other group was treated with folic acid (gel and in drinking water) (FIG. 23B). In the prevention and treatment group, folic acid (10 μg/ml) (Sigma-Aldrich, St. Louis MO) was included in the drinking water from the time of suture placement until end of the study (14 days). Additionally, gel applications were repeated daily until the end of the study (14 days). The four groups in this study were: • 1. Control group (n=2): no interventions were performed • 2.
Histopathology and Immunohistochemistry. Mice mandibles were fixed in 10% formaldehyde for overnight at 4° C. on the shaker with 45 rpm and then the solutions were replaced with 70% ethanol. The tissues were decalcified with 10% ethylenediaminetetraacetic acid (EDTA) for 1 week and were dehydrated through graded ethanol, cleared with xylene, and embedded in paraffin. 4 μm serial sections were cut in a buccal-lingual direction and stained with Hematoxylin and Eosin (HE) and observed under light microscopy for histomorphological evaluations.
For immunohistochemistry, unstained sections were deparaffinized in xylene for 10 minutes and then transferred to ethanol for 20 minutes. […]

In the next assay the test system is Human TNF-α promoter. In words: TNF-α promoter luciferase reporter assay in oral keratinocytes. Particulars: full length promoter and deletion constructs; CSA, LPS & Folic acid each 10 μg/ml; p<0.05. The assay is classed as cell-based. The protocol: Reporter assay. The TNF-α promoter deletion constructs, Δ−1220 (−1220 to +65) and Δ−450 (−450 to +65) were synthesized from SwitchGear Genomics (USA) for the luciferase reporter assay. The human TNF-α promoter constructs or an empty pLightSwitch promoter reporter vector as a control was transfected in to NOKSI using the FuGene reagent (SwitchGear Genomics, USA). Cells were seeded with a density of 5×10^3 per well of 96-well plate. GoClone reporter constructs and transfection reagents were mixed with optimum combination and incubated for 30 minutes. The media were changed to the seeded cells and reaction mixture were gently dripped onto the seeded cells, shaked the plate gently and incubated for next 24 hours. The LightSwitch assay reagents were added to the transfected plates and incubated for 30 minutes at room temperature. Luciferase activity were measured with a luminometer (Wallac Vector3; PerkinElmer, Boston, MA).
Oral Keratinocytes cells were transfected with Full length TNF-α promoter and […] and treated with CSA (10 μg/ml) & LPS (10 μg/ml), and CSA (10 μg/ml), LPS (10 μg/ml) & Folic acid (10 μg/ml). TNF-α luciferase reporter activity were measured. (p<0.05).

Another assay concerns TNF-α. Kind of assay: TNF-α ELISA of mice gingival tissue lysates. The format is in vivo. Particulars: n=5, p<0.05. The protocol: Enzyme linked immunosorbent assay (ELISA). ELISA was conducted with a mouse TNF-α ELISA Kit (PeproTech, USA) and TGF-β Emax ImmunoAssay System (Promega USA) to detect the TNF-α and TGF-β respectively. After normalization of the total cells or tissue protein lysates, 20 μg protein of each sample was used for the detection of TNF-α or TGF-β. ELISA was performed according to the manufacturers' instructions. For TNF-α, 100 ng/100 μl of capture antibody was added to each well of 96 well assay plate and incubated for overnight at room temperature. Blocking buffer of 200 μl per well were added to each well and incubated for 1 hour at room temperature. 20 μg of each protein sample as well as TNF-α standard (from 2 ng/ml to 0 ng/ml) were added and incubated the plates for 2 hours. 50 ng/100 μl of detection antibody was added in each well and incubated for 2 hours. Avidin-HRP conjugated antibody with a dilution of 1:2000 was added for 30 minutes. 100 μl per well of ABTS solution was added to each well and incubated until color change. Optical absorbing values were read at 405 and 450 nm and corrected by 650 nm. […] TMB One Solution was added for 15 minutes and the reaction were stopped using 100 μl of 1N hydrochloric acid and the absorbance at 450 nm were recorded on a plate reader. Data were analyzed using excel software. […]
Mice gingival tissue lysates were assessed for TNF-α levels using an ELISA (n=5).
(In an ELISA, binding on a coated surface is turned into a signal by an enzyme label.)

The structures appear in SMILES notation.

For the compound `Nc1nc2ncc(CNc3ccc(C(=O)N[C@@H](CCC(=O)O)C(=O)O)cc3)nc2c(=O)[nH]1` [folic acid], the “epithelial Myd88 expression, disease group relative to folic acid-treated group” value with Myd88 is “significantly higher compared to both treated and control groups”. In the assay on Human TNF-α promoter, the “TNF-α luciferase reporter activity” value is reported as “inhibits promoter activity of TNF-α”. The “TNF-α levels in mice gingival tissue lysates” value in the assay on TNF-α was “reduced the expression of TNF-α”.

The record behind these values is US20260000496A1, “MATERIALS AND METHODS FOR DRUG-INDUCED GINGIVAL OVERGROWTH” (Optimed Technology, Inc., priority 2019, published 2026).
